A short description of this data set: Solubility in oil (sesame oil, benzyl benzoate), visual observation. Particulars: oil or lipid, thermodynamic from solid.

As usually defined, the solubility is the concentration that dissolves in the medium under given conditions. Low readings indicate little dissolved substance, high ones much dissolved substance.

The structures appear in SMILES notation.

Description: Each of the Example compounds was examined for the solubility in oil (sesame oil, benzyl benzoate).
For the specific gravity of an oil, the following values were applied. • sesame oil (specific gravity: 0.914-0.921) • benzyl benzoate (specific gravity: 1.123) • (Method)
Example compound is measured in a microtube and an oil (sesame oil, or, benzyl benzoate) in an amount to make the concentration 10 mg/0.1 ml is added. After stirring, the solubility is evaluated by visual observation. When the compound is not dissolved, the mixture is heated, and the solubility is evaluated after cooling.

Under “benzyl benzoate”, `CCCCCCCCCCCCCCCCCCCC(=O)OCn1c(=O)ccc2ccc(OCCCCN3CCN(c4cccc5sccc45)CC3)cc21` [Example 41, icosanoic acid 7-[4-(4-benzo[b]thiophen-4-ylpiperazin-1-yl)butoxy]-2-oxo-2H-quinolin-1-ylmethyl ester] gave a solubility above 100 mg/mL.

On to `CCCCCCCCCCCCCCCC(=O)OCn1c(=O)ccc2ccc(OCCCCN3CCN(c4cccc5sccc45)CC3)cc21` [Example 42, hexadecanoic acid 7-[4-(4-benzo[b]thiophen-4-ylpiperazin-1-yl)butoxy]-2-oxo-2H-quinolin-1-ylmethyl ester], for which, for the setting “benzyl benzoate”, the solubility was above 100 mg/mL.

In turn, `CCCCCCCCCCCCCCCNC(=O)OCn1c(=O)ccc2ccc(OCCCCN3CCN(c4cccc5sccc45)CC3)cc21` [Example 43, N-pentadecylcarbamic acid 7-[4-(4-benzo[b]thiophen-4-ylpiperazin-1-yl)butoxy]-2-oxo-2H-quinolin-1-ylmethyl ester] yielded a solubility (benzyl benzoate) above 100 mg/mL.

Consider `CCCCCCCCCCCCCCCCCCN(C)C(=O)OCn1c(=O)ccc2ccc(OCCCCN3CCN(c4cccc5sccc45)CC3)cc21` [Example 44, N-methyl-N-octadecylcarbamic acid 7-[4-(4-benzo[b]thiophen-4-ylpiperazin-1-yl)butoxy]-2-oxo-2H-quinolin-1-ylmethyl ester], for which the solubility was above 100 mg/mL (benzyl benzoate) and above 100 mg/mL (sesame oil).

For the compound `CCCCN(CCCC)C(=O)OCn1c(=O)ccc2ccc(OCCCCN3CCN(c4cccc5sccc45)CC3)cc21` [Example 45, N,N-dibutylcarbamic acid 7-[4-(4-benzo[b]thiophen-4-ylpiperazin-1-yl)butoxy]-2-oxo-2H-quinolin-1-ylmethyl ester], the solubility (benzyl benzoate) was above 100 mg/mL and the solubility (sesame oil) is above 100 mg/mL.

For the compound `CNC(=O)OCN1C(=O)CCc2ccc(OCCCCN3CCN(c4cccc5sccc45)CC3)cc21` [Example 46, N-methylcarbamic acid 7-[4-(4-benzo[b]thiophen-4-ylpiperazin-1-yl)butoxy]-2-oxo-3,4-dihydro-2H-quinolin-1-ylmethyl ester], where the note is “benzyl benzoate”, the solubility was above 100 mg/mL.

The compound `CN(C)C(=O)OCN1C(=O)CCc2ccc(OCCCCN3CCN(c4cccc5sccc45)CC3)cc21` [Example 47, N,N-dimethylcarbamic acid 7-[4-(4-benzo[b]thiophen-4-ylpiperazin-1-yl)butoxy]-2-oxo-3,4-dihydro-2H-quinolin-1-ylmethyl ester] registered a solubility (benzyl benzoate) above 100 mg/mL.

In the case of `CCCCCCCCCCCCCCCCCC(=O)OCN1C(=O)CCc2ccc(OCCCCN3CCN(c4cccc5sccc45)CC3)cc21` [Example 48, octadecanoic acid 7-[4-(4-benzo[b]thiophen-4-ylpiperazin-1-yl)butoxy]-2-oxo-3,4-dihydro-2H-quinolin-1-ylmethyl ester], under “benzyl benzoate”, the solubility was above 100 mg/mL.

As to `CCOC(=O)OCN1C(=O)CCc2ccc(OCCCCN3CCN(c4cccc5sccc45)CC3)cc21` [Example 49, carbonic acid 7-[4-(4-benzo[b]thiophen-4-ylpiperazin-1-yl)butoxy]-2-oxo-3,4-dihydro-2H-quinolin-1-ylmethyl ester ethyl ester], the solubility (benzyl benzoate) was above 100 mg/mL.

As for `CCOC(=O)OCn1c(=O)ccc2ccc(OCCCCN3CCN(c4cccc5sccc45)CC3)cc21` [Example 50, carbonic acid 7-[4-(4-benzo[b]thiophen-4-ylpiperazin-1-yl)butoxy]-2-oxo-2H-quinolin-1-ylmethyl ester ethyl ester], where the note is “benzyl benzoate”, the solubility was above 100 mg/mL.

In turn, `CCNC(=O)OCN1C(=O)CCc2ccc(OCCCCN3CCN(c4cccc5sccc45)CC3)cc21` [Example 51, N-ethylcarbamic acid 7-[4-(4-benzo[b]thiophen-4-ylpiperazin-1-yl)butoxy]-2-oxo-3,4-dihydro-2H-quinolin-1-ylmethyl ester] registered a solubility (benzyl benzoate) above 100 mg/mL.

For the compound `CCN(CC)C(=O)OCN1C(=O)CCc2ccc(OCCCCN3CCN(c4cccc5sccc45)CC3)cc21` [Example 52, N,N-diethylcarbamic acid 7-[4-(4-benzo[b]thiophen-4-ylpiperazin-1-yl)butoxy]-2-oxo-3,4-dihydro-2H-quinolin-1-ylmethyl ester], the solubility reads like this: (benzyl benzoate) above 100 mg/mL; (sesame oil) above 100 mg/mL.

In turn, `CNC(=O)OCn1c(=O)ccc2ccc(OCCCCN3CCN(c4cccc5sccc45)CC3)cc21` [Example 53, N-methylcarbamic acid 7-[4-(4-benzo[b]thiophen-4-ylpiperazin-1-yl)butoxy]-2-oxo-2H-quinolin-1-ylmethyl ester] displayed a solubility (benzyl benzoate) above 100 mg/mL.

In turn, `CCCCCC(CCCCC)C(=O)OCn1c(=O)ccc2ccc(OCCCCN3CCN(c4cccc5sccc45)CC3)cc21` [Example 54, 2-pentylheptanoic acid 7-[4-(4-benzo[b]thiophen-4-ylpiperazin-1-yl)butoxy]-2-oxo-2H-quinolin-1-ylmethyl ester] yielded a solubility (benzyl benzoate) above 100 mg/mL.

`CCNC(=O)OCn1c(=O)ccc2ccc(OCCCCN3CCN(c4cccc5sccc45)CC3)cc21` [Example 55, N-ethylcarbamic acid 7-[4-(4-benzo[b]thiophen-4-ylpiperazin-1-yl)butoxy]-2-oxo-2H-quinolin-1-ylmethyl ester]: where the note is “benzyl benzoate”, the solubility was above 100 mg/mL.

Take `CN(C)C(=O)OCn1c(=O)ccc2ccc(OCCCCN3CCN(c4cccc5sccc45)CC3)cc21` [Example 56, N,N-dimethylcarbamic acid 7-[4-(4-benzo[b]thiophen-4-ylpiperazin-1-yl)butoxy]-2-oxo-2H-quinolin-1-ylmethyl ester]: for the setting “benzyl benzoate”, the solubility was above 100 mg/mL.

`CCN(CC)C(=O)OCn1c(=O)ccc2ccc(OCCCCN3CCN(c4cccc5sccc45)CC3)cc21` [Example 57, N,N-diethylcarbamic acid 7-[4-(4-benzo[b]thiophen-4-ylpiperazin-1-yl)butoxy]-2-oxo-2H-quinolin-1-ylmethyl ester]: the solubility was above 100 mg/mL (benzyl benzoate) and above 100 mg/mL (sesame oil).

Consider `CCCCCC(=O)OCn1c(=O)ccc2ccc(OCCCCN3CCN(c4cccc5sccc45)CC3)cc21` [Example 58, hexanoic acid 7-[4-(4-benzo[b]thiophen-4-ylpiperazin-1-yl)butoxy]-2-oxo-2H-quinolin-1-ylmethyl ester], for which the solubility (benzyl benzoate) is above 100 mg/mL.

Regarding `CCCCCCCCCC(=O)OCn1c(=O)ccc2ccc(OCCCCN3CCN(c4cccc5sccc45)CC3)cc21` [Example 59, decanoic acid 7-[4-(4-benzo[b]thiophen-4-ylpiperazin-1-yl)butoxy]-2-oxo-2H-quinolin-1-ylmethyl ester], for the setting “benzyl benzoate”, the solubility is above 100 mg/mL.

Consider `CCCCCCCCCCCCCCCCCC(=O)OCn1c(=O)ccc2ccc(OCCCCN3CCN(c4cccc5sccc45)CC3)cc21` [Example 60, octadecanoic acid 7-[4-(4-benzo[b]thiophen-4-ylpiperazin-1-yl)butoxy]-2-oxo-2H-quinolin-1-ylmethyl ester], for which the solubility is above 100 mg/mL (benzyl benzoate) and above 100 mg/mL (sesame oil).

The compound `CC(=O)OCn1c(=O)ccc2ccc(OCCCCN3CCN(c4cccc5sccc45)CC3)cc21` [Example 61, acetic acid 7-[4-(4-benzo[b]thiophen-4-ylpiperazin-1-yl)butoxy]-2-oxo-2H-quinolin-1-ylmethyl ester] gave a solubility (benzyl benzoate) above 100 mg/mL.

Consider `O=C(NCc1ccccc1)OCn1c(=O)ccc2ccc(OCCCCN3CCN(c4cccc5sccc45)CC3)cc21` [Example 62, N-benzylcarbamic acid 7-[4-(4-benzo[b]thiophen-4-ylpiperazin-1-yl)butoxy]-2-oxo-2H-quinolin-1-ylmethyl ester], for which the solubility (benzyl benzoate) is above 100 mg/mL.

The record behind these values is patent publication US9539252B2, “Piperazine-substituted benzothiophene derivatives as antipsychotic agents” (OTSUKA PHARMACEUTICAL CO., LTD., priority 2011, dated 2017).
